Reference: ChEMBL document CHEMBL3886557, “Compounds as inhibitors of diacylglycerol O-acyltransferase type 1 enzyme” (2016)

Assays:
[1] = target: T1, Diacylglycerol O-acyltransferase 1 (Homo sapiens, UniProt O75907); type: tissue-based, Liver
T1 sequence (O75907 whole entry): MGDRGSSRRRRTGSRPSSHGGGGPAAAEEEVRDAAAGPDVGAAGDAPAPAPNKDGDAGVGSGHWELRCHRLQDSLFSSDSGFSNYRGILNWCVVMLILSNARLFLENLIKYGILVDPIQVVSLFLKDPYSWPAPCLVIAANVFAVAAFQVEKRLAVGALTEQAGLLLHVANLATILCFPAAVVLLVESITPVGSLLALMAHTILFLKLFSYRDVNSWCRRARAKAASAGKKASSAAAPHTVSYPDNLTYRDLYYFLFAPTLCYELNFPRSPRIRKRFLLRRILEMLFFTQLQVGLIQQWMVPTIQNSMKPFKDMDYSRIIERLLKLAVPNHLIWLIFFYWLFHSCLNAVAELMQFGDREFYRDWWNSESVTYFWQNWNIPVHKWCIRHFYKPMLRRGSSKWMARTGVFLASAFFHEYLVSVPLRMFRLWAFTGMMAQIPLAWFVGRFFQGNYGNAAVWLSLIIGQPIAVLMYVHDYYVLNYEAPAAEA

[2] = target: T2, Diacylglycerol O-acyltransferase 1 (Mus musculus, UniProt Q9Z2A7); assay: Inhibition Assay: Â Assay buffer [20 mM HEPES (pH 7.4), 100 mM MgCl2 and 0.04% bovine serum albumin (BSA)] containing 500 uM of enzyme substrate (didecanoyl glycerol) and 7.5 uM radiolabeled acyl-CoA substrate ([14C]decanoyl-CoA) was added to each well of a phospholipid-coated radiometric assay plate.; type: microsomes, Liver
T2 sequence (Q9Z2A7 whole entry): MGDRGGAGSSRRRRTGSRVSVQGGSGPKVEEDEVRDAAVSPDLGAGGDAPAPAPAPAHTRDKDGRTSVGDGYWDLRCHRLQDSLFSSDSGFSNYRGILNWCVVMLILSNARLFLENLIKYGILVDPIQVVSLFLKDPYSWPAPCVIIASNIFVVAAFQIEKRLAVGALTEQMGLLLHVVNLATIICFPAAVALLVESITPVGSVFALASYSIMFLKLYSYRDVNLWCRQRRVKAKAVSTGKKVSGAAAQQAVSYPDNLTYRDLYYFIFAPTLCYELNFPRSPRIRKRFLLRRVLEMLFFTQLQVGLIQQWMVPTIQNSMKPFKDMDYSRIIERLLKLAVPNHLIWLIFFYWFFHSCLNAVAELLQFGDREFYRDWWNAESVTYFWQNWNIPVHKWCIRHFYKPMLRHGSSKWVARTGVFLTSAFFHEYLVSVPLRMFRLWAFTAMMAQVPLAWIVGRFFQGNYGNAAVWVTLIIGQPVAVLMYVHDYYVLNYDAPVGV

Row | IC50 [1] [nM] | IC50 [2] [nM] | Compound
1 | < 10 | < 150 | O=C(O)C[C@H]1CC[C@H](c2ccc(-c3cn4cc(C(=O)Nc5cccc(Cl)c5)nc4s3)cc2)CC1
2 | < 25 | < 75 | O=C(O)CC1CCC(c2ccc(-c3ccc4nc(C(=O)NCc5c(F)cccc5F)cn4c3)cc2)CC1 (stereo unspecified)
3 | < 10 | < 50 | O=C(O)CC1CCC(c2ccc(-c3ccc4nc(C(=O)NCc5c(F)cccc5Cl)cn4c3)cc2)CC1 (stereo unspecified)
4 | < 10 | < 50 | O=C(O)CC1CCC(c2ccc(-c3ccc4nc(C(=O)NCc5c(Cl)cccc5Cl)cn4c3)cc2)CC1 (stereo unspecified)
5 | < 10 | < 10 | O=C(O)CC1CCC(c2ccc(-c3ccc4nc(C(=O)NC5(c6cc(F)ccc6F)CC5)cn4c3)cc2)CC1 (stereo unspecified)
6 | < 225 | < 200 | O=C(O)C[C@H]1CC[C@H](c2ccc(-c3cn4cc(C(=O)NCc5ccc(OC(F)(F)F)c(Cl)c5)nc4s3)cc2)CC1
7 | < 25 | < 25 | O=C(O)C[C@H]1CC[C@H](c2ccc(-c3cn4cc(C(=O)NCc5c(F)cccc5F)nc4s3)cc2)CC1

The next lines start with the compound.

Row | Compound | IC50 [1] [nM] | IC50 [2] [nM]
8 | O=C(O)C[C@H]1CC[C@H](c2ccc(-c3cn4cc(C(=O)NCc5ccc(F)c(Cl)c5)nc4s3)cc2)CC1 | < 10 | < 25
9 | O=C(O)C[C@H]1CC[C@H](c2ccc(-c3cn4cc(C(=O)NCc5c(Cl)cccc5Cl)nc4s3)cc2)CC1 | < 10 | < 10
10 | O=C(O)CC1CCC(c2ccc(-c3ccc4nc(C(=O)NCc5c(Cl)cccc5C(F)(F)F)cn4c3)cc2)CC1 (stereo unspecified) | < 10 | < 10
11 | O=C(O)C[C@H]1CC[C@H](c2ccc(-c3cn4cc(C(=O)NCc5c(F)cccc5Cl)nc4s3)cc2)CC1 | < 10 | < 25
12 | O=C(O)C[C@H]1CC[C@H](c2ccc(-c3cn4cc(C(=O)NCc5c(F)cc(Cl)cc5F)nc4s3)cc2)CC1 | < 10 | < 10
13 | O=C(O)CC1CCC(c2ccc(-c3cn4cc(C(=O)Nc5ccc(F)c(Cl)c5)nc4s3)cc2)CC1 (stereo unspecified) | < 10 | < 100
